# Laboratory results published in patent US8173423B2, “Diagnosis and treatment of T-cell acute lymphoblastic leukemia” (VIB VZW, priority 2006, dated 2012).
# Non-standard residues stand in square brackets, D forms with d. Residues, ends and D or L forms follow the SMILES beside them. *: point of attachment. Nle = CCCC[C@H](N)C(=O)O; Cbz = O=C(OCc1ccccc1)*
# How the values were obtained:
# [1] = test system: Ras-transformed fibroblasts; conditions: Miele 2006; cited from earlier work
# MYB = assay: Knockdown of MYB expression by siRNA electroporation, protein blot analysis; assay type: cell-based, human; conditions: among MYB stealth select siRNAs
# Description: FIG. 1: Effect of knockdown of MYB expression on T-ALL cell lines. (a) Protein blot analysis showing that electroporation of three different MYB siRNAs in RPMI-8402 cells causes a decrease of MYB expression, compared with electroporation with no siRNA or control siRNA (ERBB4). […] Control cells were treated with dimethylsulfoxide or a control siRNA. Error bars indicate s.e.m.
# DND-41, HSB-2, RPMI-8402, ALL-SIL, MOLT-4, LOUCY, P12-ICHIKAWA, CCRF-CEM (DSMZ, Braunschweig, Germany) were cultured in RPMI-1640 supplemented with 20% fetal calf serum. The number or percentage of viable cells was counted with a Vi-cell XR cell viability analyzer (Beckman Coulter, Fullerton, Calif.). For differentiation experiments, cells were cultured during a period of 6 days and electroporated on the first day and again on the 4th day with 50 nM siRNA. MYB stealth select siRNAs were purchased from Invitrogen (Carlsbad, Calif.). […] Electroporation with a stealth siRNA directed against ERBB4 (Invitrogen, Carlsbad, Calif.), a gene not expressed in these cell lines, served as a control. […] The percentage proliferation was calculated by comparing the increase of the number of viable cells from treated cells to the increase of the number of viable cells treated with DMSO and electroporated with a control siRNA, and this for a proliferation period of 3 days. […]
# ALL-SIL cells [2] = assay: Differentiation of T-ALL cell line after MYB knockdown (FACS of CD1a, CD3, CD4, CD8); assay type: cell-based, human
# Description: (§1) DND-41, HSB-2, RPMI-8402, ALL-SIL, MOLT-4, LOUCY, P12-ICHIKAWA, CCRF-CEM (DSMZ, Braunschweig, Germany) were cultured in RPMI-1640 supplemented with 20% fetal calf serum. The number or percentage of viable cells was counted with a Vi-cell XR cell viability analyzer (Beckman Coulter, Fullerton, Calif.). For differentiation experiments, cells were cultured during a period of 6 days and electroporated on the first day and again on the 4th day with 50 nM siRNA. MYB stealth select siRNAs were purchased from Invitrogen (Carlsbad, Calif.). […] Electroporation with a stealth siRNA directed against ERBB4 (Invitrogen, Carlsbad, Calif.), a gene not expressed in these cell lines, served as a control. […] For inhibition of NOTCH1, we treated the cell ines with 1 μM of Compound E (gamma-secretase inhibitor XXI, Calbiochem, San Diego, Calif.) or DMSO (control). The percentage proliferation was calculated by comparing the increase of the number of viable cells from treated cells to the increase of the number of viable cells treated with DMSO and electroporated with a control siRNA, and this for a proliferation period of 3 days.
# (§2) Analysis of CD1a, CD3, CD4 and CD8 expression and cell cycle analysis was performed on 0.3-1×10^6 cells 6 days after the first electroporation with siRNA. We used the PE/CD1a, and the TriTEST CD4 FITC/CD8 PE/CD3 PerCP Reagent kit (Becton Dickinson, San Jose, Calif.) and the CycleTEST™ PLUS DNA Reagent Kit (Becton Dickinson). After staining, the cells were detected on a FACSCanto Flow Cytometer (Becton Dickinson) and the data were analyzed with the BD FACSDiva software (Becton Dickinson). Unstained cells and cells treated with ERBB4 siRNA were used as controls. Cell sorting was performed after staining of the cells with the TriTEST CD4/CD8/CD3 kit. Cells were separated into two fractions (differentiated and undifferentiated) using the FACSVantage SE system (Becton Dickinson).
# MOLT-4 cells = assay: as above; assay type: cell-based, human
# Description: as §1, §2
# RPMI-8402 cells [3] = assay: as above; assay type: cell-based, human
# Description: as §1, §2
# ALL-SIL cells [4] = assay: Proliferation, viability and cell cycle of T-ALL cell line (viable cell count, FACS); assay type: cell-based, human; conditions: for proliferation: proliferation period of 3 days
# Description: as §1, §2
# (§3) Cell lines were electroporated every four days with 50-250 nM siRNA. MYB stealth select siRNAs (MYB-HSS106819) were purchased from Invitrogen (Carlsbad, Calif.).
# RPMI-8402 cells [5] = assay: as above; assay type: cell-based, human; conditions: for proliferation: proliferation period of 3 days
# Description: as §1, §2, §3
# MOLT-4 = conditions: reference 4; cited from earlier work
# ALL-SIL = conditions: reference 4; cited from earlier work
# RPMI-8402 = conditions: reference 4; cited from earlier work
# T-ALL cells = conditions: Miele 2006; cited from earlier work
# melanoma cell lines = conditions: Miele 2006; cited from earlier work
# melanoma xenografts = conditions: Miele 2006; cited from earlier work
# [6] = 50 nM siRNA electroporated day 1 and day 4, 6 days
# [7] = flow-sorted cells analysed 10 d later
# [8] = siRNA electroporation and/or 1 μM Compound E, vs DMSO and control siRNA
compound,measurement,setting,value
CCC(C)C(NC(=O)OCc1ccccc1)C(=O)NC(C=O)CC(C)C (stereo not drawn) [cbz-IL-CHO] (Cbz-Ile-Leu-aldehyde; configuration not given here),antineoplastic activity,[1],Notch-1—dependent antineoplastic activity
"MYB siRNA 1: MYB stealth select siRNA (Invitrogen), sequence 5′UAUAGUGUCUCUGAAUGGCUGCGGC (SEQ ID NO:1) with complementary strand SEQ ID NO:2 (chain 2 GCCGCAGCCAUUCAGAGACACUAUA; Invitrogen Stealth Select siRNA, chemistry not given here)",efficiency of siRNA,MYB,most efficient
same,"differentiation (changes in expression of CD1a, CD3, CD4 or CD8 cell surface markers)",ALL-SIL cells [2]; [6],results in the differentiation
same,reversibility of differentiation,ALL-SIL cells [2]; [7],irreversible
same,"differentiation (changes in expression of CD1a, CD3, CD4 or CD8 cell surface markers)",MOLT-4 cells; [6],results in the differentiation
same,reversibility of differentiation,MOLT-4 cells; [7],irreversible
same,"differentiation (changes in expression of CD1a, CD3, CD4 or CD8 cell surface markers)",RPMI-8402 cells [3]; [6],results in the differentiation
same,reversibility of differentiation,RPMI-8402 cells [3]; [7],irreversible
same,cell cycle,ALL-SIL cells [4]; siRNA electroporation,only a limited effect
same,proliferation,ALL-SIL cells [4]; [8],only a limited effect
same,viability / cell survival,ALL-SIL cells [4]; [8],only a limited effect
same,cell cycle,RPMI-8402 cells [5]; siRNA electroporation,only a limited effect
same,proliferation,RPMI-8402 cells [5]; [8],only a limited effect
same,viability / cell survival,RPMI-8402 cells [5]; [8],only a limited effect
"C[C@H](NC(=O)Cc1cc(F)cc(F)c1)C(=O)N[C@H]1N=C(c2ccccc2)c2ccccc2N(C)C1=O [Compound E, (S, S)-2-[2-(3,5-Difluorophenyl)-acetylamino]-N-(1-methyl-2-oxo-5-phenyl-2,3-dihydro-1H-benzo[e][1,4]diazepin-3-yl)-propionamide]",proliferation,ALL-SIL cells [4]; [8],inhibition of the proliferation
same,proliferation,RPMI-8402 cells [5]; [8],inhibition of the proliferation
same,sensitivity to GSI treatment,MOLT-4,not sensitive
same,proliferation,ALL-SIL,inhibit the proliferation
same,proliferation,RPMI-8402,inhibit the proliferation
same,growth,T-ALL cells,causes growth arrest
CCCC[C@@H](C=O)NC(=O)[C@H](CC(C)C)NC(=O)[C@H](CC(C)C)NC(=O)OCc1ccccc1 [z-Leu-leu-Nle-CHO] (Cbz-Leu-Leu-[Nle]-aldehyde),apoptosis,melanoma cell lines,induces apoptosis
same,apoptosis,melanoma xenografts,induces apoptosis
